We go through 1 compound from US20220193092A1, “PROGESTOGEN FOR USE IN THE TREATMENT OF CYTOKINE RELEASE SYNDROME” (Shenzhen Evergreen Therapeutics Co,. Ltd., priority 2020, published 2022).

Type in all cases: cell-based
Assay [1] concerns human peripheral blood mononuclear cells (PBMCs). In words: T-cell inflammation inhibition assay using anti-CD28 super agonist (ANC28.1/5D10): cytokine release from PBMCs. To be noted: PBMCs stimulated by anti-CD28 antibody. The method, then:
(§1) The human peripheral blood mononuclear cells (PBMCs) used in the following experiments are derived from Eurofins Discovery (St Charles, Mo., USA) and are a mixture of PBMCs from three healthy human subjects (Lot#98, 99, 101).
1) T-cell Inflammation Inhibition Assay Protocol Using Anti-CD28 Super Agonists First Day
High-binding enzyme-labeled plates are coated with anti-CD28 super agonists (clone ANC28.1/5D10, 2 μg/well) dissolved in PBS 1× and incubated overnight in a biosafety cabinet with lid open and immobilized by air-dry. Cryopreserved PBMCs are drip thawed, pooled and diluted to an appropriate density, and then are inoculated into a U bottom 96-well polypropylene plate (1.2×10^5 cells per well) with 228 μL per well of culture medium (RPMI 1640, 10% heat inactivated fetal bovine serum, 1% penicillin/streptomycin, 2 mM L-glutamine). The cells are incubated under 5% CO2 at 37° C. for 1 hour before adding HPC. HPC is dissolved in 50% ethanol & PBS, and is further diluted to 20× with cell culture medium. Then HPC is added to the PBMCs in volumes of 12 μL (1×) in triplicate and incubated under 5% CO2 at 37° C. for 16 hours.
After 16 hours of incubation, 200 μL of cells (1×10^5) treated with HPC or a control reagent are transferred to the anti-CD28 coated enzyme-labeled plates, and incubated under 5% CO2 at 37° C. for 48 hours. For the negative control groups, 200 μL of cells (1×10^5) are transferred to an enzyme-labeled plate coated with anti-CD28 or isotype IgG1. After 48 hours of incubation, the enzyme-labeled plates are centrifuged at […] for 10 minutes. Cell culture supernatants are collected and stored at −80° C. until use in analysis.
(§2) The cytokine level of each sample is determined using Luminex methodology and carried out in accordance with the manufacturer's protocol. Cytokine levels in the cell culture supernatants are determined in accordance with the manufacturer's protocol using Human Cytokine/Chemokine Magnetic bead panel from Millipore Sigma (catalogue No. HCYTOMAG-60K) with standards range 3.2, 16, 80, 400, 2000, […].
(§3) The following cytokines are measured: IFN-γ, IL-2, IL-6, IL-10 and TNFα.

The test system is the same in assay [2]. In words: T-cell inflammation inhibition assay using anti-CD3 (OKT3): cytokine release from PBMCs. Conditions: PBMCs stimulated by OKT3. As for the experimental part: as §1
(§4) 2) T-Cell Inflammation Inhibition Assay Protocol Using Anti-CD3 (OKT3) or PHA
(§5) Cryopreserved PBMCs are drip thawed, pooled and diluted to an appropriate density, and inoculated into a 96-well polypropylene plate (2×10^5 cells per well) with 150 μL per well of culture medium (RPMI 1640, 10% heat inactivated fetal bovine serum, 1% penicillin/streptomycin, 2 mM L-glutamine). The cells are incubated under 5% CO2 at 37° C. for 1 hour before adding HPC. HPC is dissolved in 50% ethanol & PBS, and is further diluted to 20× with cell culture medium. Then HPC is added to the PBMCs in volumes of 10 μL (1×) in triplicate and incubated under 5% CO2 at 37° C. for 16 hours.
(§6) After incubation for 16 hours, 40 μL of anti-CD3 (OKT3, 3 μg/well or 15 μg/mL) or PHA (10 μg/mL) is added to the wells according to the plate layout. The cells are incubated under 5% CO2 at 37° C. for 48 hours. Thereafter, the plates are centrifuged at 200×g for 10 minutes. Cell culture supernatants are collected and stored at −80° C. until use in analysis.
as §2, §3

Assay [3] shares this test system. In words: T-cell inflammation inhibition assay using PHA: cytokine release from PBMCs. As for the experimental part:
as §1, §4, §5, §6, §2, §3

Setting [4] is: 16 h HPC pre-incubation, 48 h stimulation, Luminex.
Setting [5] is: PBMCs stimulated by PHA (10 μg/mL), 16 h HPC pre-incubation, 48 h stimulation, Luminex.

In the case of `CCCCCC(=O)O[C@]1(C(C)=O)CC[C@H]2[C@@H]3CCC4=CC(=O)CC[C@]4(C)[C@H]3CC[C@@]21C` [HPC, hydroxyprogesterone caproate], the “inhibition effect on IL-10 and IFN-γ release: concentration dependence” value in assay [1] is listed as “concentration dependent”. For the same compound, in assay [1] (setting [4]), the “release of IFN-γ” value is given as “significantly inhibited”, the “release of IL-6” value is “significantly inhibited”, the “release of IL-10” value is on record as “significantly inhibited” and the “release of TNF-α” value is listed as “significantly inhibited”. Further, the “inhibition effect on IL-6 and IL-10 release: concentration dependence” value in assay [2] is recorded as “concentration dependent”. In addition, in assay [2] (setting [4]), the “release of IFN-γ” value is on record as “significantly inhibited”, the “release of IL-6” value is given as “significantly inhibited” and the “release of IL-10” value is given as “significantly inhibited”. Further, the “inhibition of IL-2, IL-6, IL-10 and TNF-α release: concentration dependence” value in assay [3] (PBMCs stimulated by PHA) was “concentration dependent”. In addition, in assay [3] (setting [5]), the “release of IL-2” value is reported as “significantly inhibited”, the “release of IL-6” value is “significantly inhibited”, the “release of IL-10” value is reported as “significantly inhibited” and the “release of TNF-α” value is “significantly inhibited”.
